In ChEMBL document CHEMBL1141247, “Hydroxyalkenylresorcinols from Stylogyne turbacensis” (J Nat Prod, 2007):

Columns and labels:
Trypanosoma cruzi = assay: Antitrypanosomal activity against Trypanosoma cruzi; type: functional, organism-based
Leishmania donovani = assay: Antileishmanial activity against Leishmania donovani; type: functional, organism-based
Vero = assay: Cytotoxicity against […] Vero cells by MTT assay; type: cell-based, Homo sapiens; conditions: Chlorocebus sabaeus
MCF7 = assay: Cytotoxicity against human MCF7 cells; type: functional, cell-based
NCI-H460 [1] = assay: Cytotoxicity against human NCI-H460; type: functional, cell-based
NCI-H460 [2] = assay: Cytotoxicity against human NCI-H460 at 20 ug/ml; type: functional

| SMILES | IC50 (Trypanosoma cruzi) [µM] | IC50 (Leishmania donovani) [µM] | IC50 (Vero) [µM] | IC50 (MCF7) [µM] | IC50 (NCI-H460 [1]) [µM] | inhibition at 20 µg/mL (NCI-H460 [2]) [%] |
| --- | --- | --- | --- | --- | --- | --- |
| CCCCCC[C@H](O)C/C=C\CCCCCCCc1cc(O)cc(O)c1 | 138 | 7 | 76 | 14 | 16 | – |
| CC/C=C\C[C@@H](O)CC/C=C\CCCCCCCc1cc(O)cc(O)c1 | 22 | 3 | 30 | 22 | > 10 | < 50 |
| CC1CS(=O)(=O)CCN1/N=C/c1ccc([N+](=O)[O-])o1 (stereo unspecified) [NIFURTIMOX] | 6 | – | – | – | – | – |
| CCCCC/C=C\C/C=C\CCCCCCCc1cc(OC(C)=O)cc(OC(C)=O)c1 | 117 | – | 124 | – | – | – |
| CCCCC/C=C\C/C=C\CCCCCCCc1cc(O)cc(O)c1 | 30 | 0.6 | 148 | 8.7 | 8.7 | – |
| CC/C=C\C/C=C\C/C=C\CCCCCCCc1cc(O)cc(O)c1 | 25 | 0.6 | 104 | 8.7 | 8.7 | – |
| CC/C=C\C[C@H](CC/C=C\CCCCCCCc1cc(OC(C)=O)cc(OC(C)=O)c1)OC(C)=O | 107 | – | 82 | – | – | – |
| C[C@@H]1[C@H](O)[C@@H](C)/C=C/C=C/C=C/C=C/C=C/C=C/C=C/[C@H](O[C@@H]2O[C@H](C)[C@@H](O)[C@H](N)[C@@H]2O)C[C@@H]2O[C@](O)(C[C@@H](O)C[C@@H](O)[C@H](O)CC[C@@H](O)C[C@@H](O)CC(=O)O[C@H]1C)C[C@H](O)[C@H]2C(=O)O [AMPHOTERICIN B] | – | 0.09 | – | – | – | – |
| CCCCCC[C@@H](C/C=C\CCCCCCCc1cc(OC(C)=O)cc(OC(C)=O)c1)OC(C)=O | 102 | – | 75 | – | – | – |
| CC/C=C\C/C=C\C/C=C\CCCCCCCc1cc(OC(C)=O)cc(OC(C)=O)c1 | 117 | – | 138 | – | – | – |
